From PubChem BioAssay AID1259411 (Chemical Carcinogenesis Research Information System (CCRIS), 2018)
The source made the active and inactive calls. How the calls were made is not given here.

System: rodent carcinogenicity bioassays, tumor incidence
Assay: CCRIS carcinogenicity studies
Summary of the method: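 Archive of carcinogenicity, mutagenicity, tumor promotion and tumor inhibition results drawn from journals, NCI reports and other sources, expert-reviewed; covers 1985-2011 and is no longer updated.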

**Q.** Which results are given for CN1[C@@H]2CC(OC(=O)[C@H](CO)c3ccccc3)C[C@H]1[C@@H]1O[C@@H]12 (some centres not stated)?
**A.** carcinogen call (Species: MOUSE, Strain/Sex: B6C3F1/FEMALE, Route: GAVAGE, Dose: 0, 1, 5, 25 MG/KG IN DISTILLED WATER FOR 104-105 WK (STUDY DURATION: 105 WK), Dose: 0, 1, 5, 25 MG/KG IN DISTILLED WATER FOR 104-105 WK (STUDY DURATION: 105 WK)): inactive; negative; carcinogen call (Species: MOUSE, Strain/Sex: B6C3F1/FEMALE, Route: GAVAGE, Dose: 0, 25 MG/KG IN WATER 5 D/WK FOR 104 WK, CONTROL AND DOSED GROUPS FED AD LIBITUM (STUDY DURATION: 104 WK)): inactive; negative; carcinogen call (Species: MOUSE, Strain/Sex: B6C3F1/FEMALE, Route: GAVAGE, Dose: 0, 25 MG/KG IN WATER 5 D/WK FOR 104 WK, CONTROL GROUP DIET RESTRICTED TO LIMIT WEIGHTS TO 85% OF AD LIBITUM-FED GROUP (S): inactive; negative; carcinogen call (Species: MOUSE, Strain/Sex: B6C3F1/FEMALE, Route: GAVAGE, Dose: 0, 25 MG/KG IN WATER 5 D/WK FOR 104 WK, CONTROL GROUP WAS WEIGHT-MATCHED TO DOSED GROUP (STUDY DURATION: 104 WK)): inactive; negative; carcinogen call (Species: MOUSE, Strain/Sex: B6C3F1/FEMALE, Route: GAVAGE, Dose: 0, 25 MG/KG IN WATER 5 D/WK FOR 157 WK, CONTROL GROUP DIET RESTRICTED TO LIMIT WEIGHTS TO 85% OF AD LIBITUM-FED GROUPS (): inactive; negative; carcinogen call (Species: MOUSE, Strain/Sex: B6C3F1/MALE, Route: GAVAGE, Dose: 0, 1, 5, 25 MG/KG IN DISTILLED WATER FOR 104-105 WK (STUDY DURATION: 105 WK), Dose: 0, 1, 5, 25 MG/KG IN DISTILLED WATER FOR 104-105 WK (STUDY DURATION: 105 WK)): inactive; negative; carcinogen call (Species: MOUSE, Strain/Sex: B6C3F1/MALE, Route: GAVAGE, Dose: 0, 25 MG/KG IN WATER 5 D/WK FOR 104 WK, CONTROL AND DOSED GROUPS FED AD LIBITUM (STUDY DURATION: 104 WK)): inactive; negative; carcinogen call (Species: MOUSE, Strain/Sex: B6C3F1/MALE, Route: GAVAGE, Dose: 0, 25 MG/KG IN WATER 5 D/WK FOR 104 WK, CONTROL GROUP DIET RESTRICTED TO LIMIT WEIGHTS TO 85% OF AD LIBITUM FED GROUP (S): inactive; negative; carcinogen call (Species: MOUSE, Strain/Sex: B6C3F1/MALE, Route: GAVAGE, Dose: 0, 25 MG/KG IN WATER 5 D/WK FOR 104 WK, CONTROL GROUP WAS WEIGHT-MATCHED TO DOSED GROUP (STUDY DURATION: 104 WK)): inactive; negative; carcinogen call (Species: MOUSE, Strain/Sex: B6C3F1/MALE, Route: GAVAGE, Dose: 0, 25 MG/KG IN WATER 5 D/WK FOR 157 WK, CONTROL GROUP DIET RESTRICTED TO LIMIT WEIGHTS TO 85% OF AD LIBITUM-FED GROUPS (): inactive; negative; carcinogen call (Species: RAT, Strain/Sex: F344/FEMALE, Route: GAVAGE, Dose: 1, 5, 25 MG/KG IN DISTILLED WATER FOR 104 WK (STUDY DURATION: 104 WK), Dose: 1, 5, 25 MG/KG IN DISTILLED WATER FOR 104 WK (STUDY DURATION: 104 WK)): inactive; negative; carcinogen call (Species: RAT, Strain/Sex: F344/MALE, Route: GAVAGE, Dose: 0, 1, 5, 25 MG/KG IN DISTILLED WATER FOR 104 WK (STUDY DURATION: 104 WK), Dose: 0, 1, 5, 25 MG/KG IN DISTILLED WATER FOR 104 WK (STUDY DURATION: 104 WK)): inactive; negative

**Q.** O=S(=O)(O)c1cc(S(=O)(=O)O)c2c(N=Nc3ccccc3)c(O)ccc2c1 was tested. Which carcinogen call (Species: MOUSE, Strain/Sex: B6C3F1/FEMALE, Route: ORAL, Dose: 0, 3000, 6000 PPM IN DIET FOR 103 WK (STUDY DURATION: 104 WK), Dose: 0, 3000, 6000 PPM IN DIET FOR 103 WK (STUDY DURATION: 104 WK)) did it give?
**A.** inactive; negative

**Q.** And the carcinogen call (Species: MOUSE, Strain/Sex: B6C3F1/MALE, Route: ORAL, Dose: 0, 3000, 6000 PPM IN DIET FOR 103 WK (STUDY DURATION: 104 WK), Dose: 0, 3000, 6000 PPM IN DIET FOR 103 WK (STUDY DURATION: 104 WK))?
**A.** inactive; negative

**Q.** What about the carcinogen call (Species: RAT, Strain/Sex: F344/FEMALE, Route: ORAL, Dose: 0, 1000, 3000 PPM IN DIET FOR 103 WK (STUDY DURATION: 104 WK), Dose: 0, 1000, 3000 PPM IN DIET FOR 103 WK (STUDY DURATION: 104 WK)) of the same compound?
**A.** inactive; negative

**Q.** What about the carcinogen call (Species: RAT, Strain/Sex: F344/MALE, Route: ORAL, Dose: 0, 1000, 3000 PPM IN DIET FOR 103 WK (STUDY DURATION: 104 WK), Dose: 0, 1000, 3000 PPM IN DIET FOR 103 WK (STUDY DURATION: 104 WK)) of the same compound?
**A.** inactive; negative

**Q.** For CCBr, which carcinogen call (Species: MOUSE, Strain/Sex: B6C3F1/FEMALE, Route: INHALATION, Dose: 0, 100, 200, 400 PPM 6 HR/D 5 D/WK FOR 103 WK (STUDY DURATION: 105 WK), Dose: 0, 100, 200, 400 PPM 6 HR/D 5 D/WK FOR 103 WK (STUDY DURATION: 105 WK), Tumor Site: Type of Lesion: UTERUS: ADENOMA, ADENOCARCINOMA, ADENOMA OR ADENOCARCINOMA, ADENOCARCINOMA OR SQUAMOUS CELL CARCINOMA) is on record?
**A.** active; positive

**Q.** And the carcinogen call (Species: MOUSE, Strain/Sex: B6C3F1/MALE, Route: INHALATION, Dose: 0, 100, 200, 400 PPM 6 HR/D 5 D/WK FOR 104 WK (STUDY DURATION: 106 WK), Dose: 0, 100, 200, 400 PPM 6 HR/D 5 D/WK FOR 104 WK (STUDY DURATION: 106 WK), Tumor Site: Type of Lesion: LUNG: ALVEOLAR/BRONCHIOLAR ADENOMA OR CARCINOMA)?
**A.** equivocal

**Q.** What about the carcinogen call (Species: RAT, Strain/Sex: F344/FEMALE, Route: INHALATION, Dose: 0, 100, 200, 400 PPM 6 HR/D 5 D/WK FOR 104 WK (STUDY DURATION: 106 WK), Dose: 0, 100, 200, 400 PPM 6 HR/D 5 D/WK FOR 104 WK (STUDY DURATION: 106 WK), Tumor Site: Type of Lesion: BRAIN: GLIOMA, LUNG: ALVEOLAR/BRONCHIOLAR ADENOMA) of the same compound?
**A.** equivocal

**Q.** And the carcinogen call (Species: RAT, Strain/Sex: F344/MALE, Route: INHALATION, Dose: 0, 100, 200, 400 PPM 6 HR/D 5 D/WK FOR 104 WK (STUDY DURATION: 106 WK), Dose: 0, 100, 200, 400 PPM 6 HR/D 5 D/WK FOR 104 WK (STUDY DURATION: 106 WK), Tumor Site: Type of Lesion: ADRENAL MEDULLA: PHEOCHROMOCYTOMA, PHEOCHROMOCYTOMA OR MALIGNANT PHEOCHROMOCYTOMA)?
**A.** active; positive

**Q.** Which results are given for CCN(CC)C(=O)Nc1ccc(OCC(O)CNC(C)(C)C)c(C(C)=O)c1 (configuration not stated)?
**A.** carcinogen call (Species: MOUSE, Strain/Sex: CD-1/FEMALE, Route: ORAL, Dose: 0, 100, 300, 900 MG/KG IN DIET FOR DURATION OF STUDY (STUDY DURATION: 2 YR), Dose: 0, 100, 300, 900 MG/KG IN DIET FOR DURATION OF STUDY (STUDY DURATION: 2 YR)): inactive; negative; carcinogen call (Species: MOUSE, Strain/Sex: CD-1/MALE, Route: ORAL, Dose: 0, 100, 300, 900 MG/KG IN DIET FOR DURATION OF STUDY (STUDY DURATION: 2 YR), Dose: 0, 100, 300, 900 MG/KG IN DIET FOR DURATION OF STUDY (STUDY DURATION: 2 YR)): inactive; negative; carcinogen call (Species: RAT, Strain/Sex: SPRAGUE-DAWLEY/FEMALE, Route: ORAL, Dose: 0, 100, 300, 900 MG/KG IN DIET FOR 316 D THEN 0, 30, 100, 300 MG/KG FOR DURATION OF STUDY (STUDY DURATION: 2 YR), Dose: 0, 100, 300, 900 MG/KG IN DIET FOR 316 D THEN 0, 30, 100, 300 MG/KG FOR DURATION OF STUDY (STUDY DURATION: 2 YR)): inactive; negative; carcinogen call (Species: RAT, Strain/Sex: SPRAGUE-DAWLEY/MALE, Route: ORAL, Dose: 0, 100, 300, 900 MG/KG IN DIET FOR 316 D THEN 0, 30, 100, 300 MG/KG FOR DURATION OF STUDY (STUDY DURATION: 2 YR), Dose: 0, 100, 300, 900 MG/KG IN DIET FOR 316 D THEN 0, 30, 100, 300 MG/KG FOR DURATION OF STUDY (STUDY DURATION: 2 YR)): inactive; negative

**Q.** Which results are given for NNCCc1ccccc1?
**A.** carcinogen call (Species: MOUSE, Strain/Sex: SWISS/MALE, Route: ORAL, Dose: 0, 0.15% IN WATER, Tumor Site: Type of Lesion: BLOOD VESSELS: ANGIOMA, ANGIOSARCOMA, LUNG: ADENOMA, ADENOCARCINOMA): active; positive; carcinogen call (Species: RAT, Strain/Sex: SPRAGUE-DAWLEY/MALE, Route: ORAL, Dose: 0, 0.02% IN DIET FOR 68-87 WK (STUDY DURATION: 87 WK)): inactive; negative

**Q.** Which carcinogen call (Species: RAT, Strain/Sex: SPRAGUE-DAWLEY/FEMALE, Route: SUBCUTANEOUS, Dose: 0, 0.2 UMOL IN 0.1 ML SESAME OIL: DMSO (9:1) 3/WK FOR 20 DOSES (STUDY DURATION: 52 WK), Tumor Site: Type of Lesion: INJECTION SITE: SARCOMA) does the source give for Cc1ccc2cc3c(ccc4ccccc43)c3c2c1CC3OS(=O)(=O)O (configuration not stated) here?
**A.** active; positive
